Reference: ChEMBL document CHEMBL1132032, “3-Acyloxy-2-phenalkylpropyl amides and esters of homovanillic acid as novel vanilloid receptor agonists” (Bioorg Med Chem Lett, 1999)
Active and inactive are the calls of the source. The calls are words filed in the database; no cut-off is given here.

Columns and labels:
[1] = biological target: T1, Vanilloid receptor (Rattus norvegicus) (UniProt Q9ERZ8+Q9WUD2+O35433)
Description: Cation influx relative to capsaicin (CAP) in cultured neonatal rat dorsal root ganglia (+++ = 100xCAP)

[2] = biological target: Transient receptor potential cation channel subfamily V member 1 (Rattus norvegicus, UniProt O35433); experiment: In vitro binding affinity towards vanilloid receptor by [3H]RTX displacement.
[3] = biological target: T1, Vanilloid receptor (Rattus norvegicus); experiment: Cation influx relative to capsaicin (CAP) in cultured neonatal rat dorsal root ganglia (++ = 10xCAP); assay type: functional
[4] = biological target: T1, Vanilloid receptor (Rattus norvegicus); experiment: Cation influx relative to capsaicin (CAP) in cultured neonatal rat dorsal root ganglia (+ = similar to CAP); assay type: functional
[5] = biological target: T1, Vanilloid receptor (Rattus norvegicus); experiment: Cation influx relative to capsaicin (CAP) in cultured neonatal rat dorsal root ganglia (W = Weaker than CAP); assay type: functional
[6] = biological target: T1, Vanilloid receptor (Rattus norvegicus); experiment: Cation influx relative to capsaicin (CAP) in cultured neonatal rat dorsal root ganglia (No response); assay type: functional

T1 sequence (O35433 whole entry, looked up): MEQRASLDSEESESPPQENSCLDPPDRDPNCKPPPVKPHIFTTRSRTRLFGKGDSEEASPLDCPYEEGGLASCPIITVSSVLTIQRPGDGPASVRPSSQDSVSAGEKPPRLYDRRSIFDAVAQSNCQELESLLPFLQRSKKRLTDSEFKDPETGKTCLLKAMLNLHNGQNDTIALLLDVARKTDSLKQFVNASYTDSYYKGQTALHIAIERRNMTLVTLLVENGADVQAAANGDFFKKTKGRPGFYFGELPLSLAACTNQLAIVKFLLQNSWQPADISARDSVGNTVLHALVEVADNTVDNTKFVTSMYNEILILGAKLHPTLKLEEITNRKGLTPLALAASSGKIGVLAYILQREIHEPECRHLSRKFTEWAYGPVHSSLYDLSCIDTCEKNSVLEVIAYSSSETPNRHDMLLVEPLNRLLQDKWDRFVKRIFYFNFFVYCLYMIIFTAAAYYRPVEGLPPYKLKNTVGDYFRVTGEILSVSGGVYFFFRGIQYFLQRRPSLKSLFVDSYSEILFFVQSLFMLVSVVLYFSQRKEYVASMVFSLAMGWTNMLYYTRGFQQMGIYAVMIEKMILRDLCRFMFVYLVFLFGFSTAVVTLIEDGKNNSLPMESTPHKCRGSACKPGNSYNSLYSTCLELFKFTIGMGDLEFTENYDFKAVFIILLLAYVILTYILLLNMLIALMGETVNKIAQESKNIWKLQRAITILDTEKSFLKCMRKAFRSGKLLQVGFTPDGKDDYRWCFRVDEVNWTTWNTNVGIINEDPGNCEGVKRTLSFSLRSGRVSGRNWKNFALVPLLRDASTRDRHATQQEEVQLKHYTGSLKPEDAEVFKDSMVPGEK
T1 sequence (Q9ERZ8 whole entry, looked up): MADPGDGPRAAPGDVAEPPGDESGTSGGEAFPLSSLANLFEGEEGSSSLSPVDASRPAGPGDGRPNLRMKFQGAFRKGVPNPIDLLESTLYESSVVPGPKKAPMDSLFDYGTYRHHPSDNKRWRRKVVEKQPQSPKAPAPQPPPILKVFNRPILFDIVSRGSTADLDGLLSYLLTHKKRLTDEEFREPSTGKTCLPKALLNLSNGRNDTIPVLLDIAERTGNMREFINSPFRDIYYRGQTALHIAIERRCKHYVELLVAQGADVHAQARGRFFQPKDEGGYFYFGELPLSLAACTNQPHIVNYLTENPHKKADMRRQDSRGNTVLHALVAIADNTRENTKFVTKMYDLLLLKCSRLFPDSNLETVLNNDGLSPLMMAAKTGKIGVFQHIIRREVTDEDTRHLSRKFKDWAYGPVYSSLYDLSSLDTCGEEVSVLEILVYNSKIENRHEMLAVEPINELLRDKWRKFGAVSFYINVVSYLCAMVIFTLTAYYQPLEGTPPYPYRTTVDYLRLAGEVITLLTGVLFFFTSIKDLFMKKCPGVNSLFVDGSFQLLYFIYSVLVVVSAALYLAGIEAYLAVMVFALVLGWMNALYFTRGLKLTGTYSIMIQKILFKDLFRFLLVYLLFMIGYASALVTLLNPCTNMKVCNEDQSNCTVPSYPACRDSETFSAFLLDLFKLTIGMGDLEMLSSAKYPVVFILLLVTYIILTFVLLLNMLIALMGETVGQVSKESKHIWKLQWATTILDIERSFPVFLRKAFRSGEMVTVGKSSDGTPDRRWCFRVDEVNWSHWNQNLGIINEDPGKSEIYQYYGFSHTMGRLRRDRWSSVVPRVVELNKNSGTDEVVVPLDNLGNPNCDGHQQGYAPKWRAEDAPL
T1 sequence (Q9WUD2 whole entry, looked up): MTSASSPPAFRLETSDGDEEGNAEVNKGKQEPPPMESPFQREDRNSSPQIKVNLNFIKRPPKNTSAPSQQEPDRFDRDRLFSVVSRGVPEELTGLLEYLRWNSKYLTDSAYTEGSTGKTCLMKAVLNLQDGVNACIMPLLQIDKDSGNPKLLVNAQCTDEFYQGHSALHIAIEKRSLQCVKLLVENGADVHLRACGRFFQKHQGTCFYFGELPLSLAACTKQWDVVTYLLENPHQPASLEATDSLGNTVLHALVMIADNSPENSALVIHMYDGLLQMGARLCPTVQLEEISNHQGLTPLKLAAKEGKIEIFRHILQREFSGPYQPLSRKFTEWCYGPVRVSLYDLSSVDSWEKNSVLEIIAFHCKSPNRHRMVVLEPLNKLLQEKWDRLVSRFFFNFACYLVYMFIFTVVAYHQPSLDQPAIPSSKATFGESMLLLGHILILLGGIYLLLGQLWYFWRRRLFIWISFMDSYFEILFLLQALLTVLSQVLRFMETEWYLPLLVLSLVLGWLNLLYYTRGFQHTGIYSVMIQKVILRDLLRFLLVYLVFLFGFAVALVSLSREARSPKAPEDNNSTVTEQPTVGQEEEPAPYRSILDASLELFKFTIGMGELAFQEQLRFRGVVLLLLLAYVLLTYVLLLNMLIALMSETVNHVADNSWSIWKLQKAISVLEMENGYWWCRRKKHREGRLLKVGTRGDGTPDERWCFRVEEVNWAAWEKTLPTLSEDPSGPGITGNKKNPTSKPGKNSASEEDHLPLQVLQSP
Transient receptor potential cation channel subfamily V member 1, sequence (O35433 whole entry): as the sequence (O35433 whole entry, looked up) above

Row | SMILES | Ki [2] | Cation influx [6] | other results
1 | C=C(C)[C@]12C[C@@H](C)[C@@]34O[C@](Cc5ccccc5)(O[C@@H]1[C@@H]3C=C(COC(=O)Cc1ccc(O)c(OC)c1)C[C@]1(O)C(=O)C(C)=C[C@@H]41)O2 [RESINIFERATOXIN] | 2.3e-05 µM | – | Cation influx [1]: Active
2 | COc1cc(CC(=O)NCC(/C=C/C(=O)OC(C)(C)C)Cc2ccccc2)ccc1O (stereo unspecified) | 0.48 µM | – | Cation influx [3]: Active
3 | COc1cc(CC(=O)NC/C(=C\Cc2ccccc2)COC(=O)C(C)(C)C)ccc1O | 1.22 µM | – | Cation influx [3]: Active
4 | COc1cc(CC(=O)NCCCc2ccc(C)c(C)c2)ccc1OCCN [DAVASAICIN] | 1.4 µM | – | Cation influx [4]: Active
5 | COc1cc(CC(=O)NC/C(=C/Cc2ccccc2)COC(C)=O)ccc1O | 29.2 µM | – | Cation influx [5]: Partially active
6 | COc1cc(CC(=O)OCC(COC(C)=O)Cc2ccccc2)ccc1O (stereo unspecified) | > 100 µM | inactive | –
7 | COc1cc(CC(=O)NCC(COC(C)=O)OCc2ccccc2)ccc1O (stereo unspecified) | > 100 µM | inactive | –
8 | COC(=O)/C=C/C(CNC(=O)Cc1ccc(O)c(OC)c1)Cc1ccccc1 (stereo unspecified) | 13.5 µM | – | Cation influx [5]: Partially active
9 | COc1cc(CC(=O)NCC(COC(C)=O)Cc2ccccc2)ccc1O (stereo unspecified) | 19.3 µM | – | Cation influx [5]: Partially active
10 | COc1cc(CC(=O)NC/C(=C\Cc2ccccc2)COC(C)=O)ccc1O | 12.9 µM | – | Cation influx [5]: Partially active
11 | COc1cc(CC(=O)OC/C(=C\COCc2ccccc2)COC(C)=O)ccc1O | > 100 µM | inactive | –
12 | COc1cc(CC(=O)NCC(COC(=O)C(C)(C)C)Cc2ccccc2)ccc1O (stereo unspecified) | 0.404 µM | – | Cation influx [3]: Active
13 | COc1cc(CC(=O)OCC(COC(C)=O)OCc2ccccc2)ccc1O (stereo unspecified) | > 100 µM | inactive | –
14 | COc1cc(CC(=O)OC/C(=C/COCc2ccccc2)COC(C)=O)ccc1O | > 100 µM | inactive | –
15 | COc1cc(CC(=O)OCC(COCc2ccccc2)COC(C)=O)ccc1O (stereo unspecified) | > 100 µM | inactive | –
16 | COc1cc(CC(=O)NCC(CCc2ccccc2)COC(=O)C(C)(C)C)ccc1O (stereo unspecified) | 0.295 µM | – | Cation influx [3]: Active
17 | COc1cc(CC(=O)NCC(CCc2ccccc2)COC(C)=O)ccc1O (stereo unspecified) | 45.2 µM | – | Cation influx [5]: Partially active
18 | COc1cc(CC(=O)NCC(COCc2ccccc2)COC(C)=O)ccc1O (stereo unspecified) | 78 µM | inactive | –
